This passage reports IC50 results from patent US20230295157A1, “3-(1H-IMIDAZOL-2-YL)-2,3,8,8A-TETRAHYDROINDOLIZIN-5(1H)-ONE DERIVATIVES USEFUL AS FACTOR XIA INHIBITORS” (JANSSEN PHARMACEUTICA NV, priority 2020, published 2023).

Like-named read-outs stand apart in the source and are kept apart here. Some results are limits rather than exact numbers.

In test [1] the target is human plasma kallikrein (Homo sapiens (Human), UniProt P03952). Briefly: Kallikrein inhibition assay (FLINT) utilizing a quenched AMC peptide substrate. Conditions: 30 min preincubation, kinetic reads over 30 min, Z-Gly-Pro-Arg-AMC substrate 50 μM; read-out: Kallikrein Kin Inh IC50. It counts as biochemical. In short, it runs like this:
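Fluorogenic Z-Gly-Pro-Arg-AMC cleavage (50 μM substrate, 2 nM kallikrein, Tris pH 7.5, CaCl2, BSA, CHAPS, 2% DMSO) read kinetically at 340/440 nm for 30 min after 30-min compound pre-incubation. Compounds in 11-point 3-fold series from 1 μM; percent inhibition fitted to four-parameter equation for IC50.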

Test [2] has as its target Factor XIa (Homo sapiens (Human), UniProt P03951). Briefly: Factor XIa inhibition assay (FLINT) utilizing a fluorophore-quencher pair peptide substrate. It is filed as biochemical. Conditions: 30 min preincubation, kinetic reads over 30 min, read-out: FXIa Kin Inh IC50. In short, it runs like this:
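FXIa ([…]) preincubated 30 min with compound (11-point 3-fold dilution, top 100 nM, 2% DMSO), then 15 μM quenched FXI Arg146-based peptide added; Tris pH 7.5, CaCl2, BSA, CHAPS. Fluorescence 485/520 nm read kinetically every 5 min over 30 min at RT; IC50 by 4-parameter fit.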

The mark [3] stands for this setting: 5Fam-KLTRAETV-K5Tamra substrate 15 μM.

human plasma kallikrein, sequence (P03952 391-638): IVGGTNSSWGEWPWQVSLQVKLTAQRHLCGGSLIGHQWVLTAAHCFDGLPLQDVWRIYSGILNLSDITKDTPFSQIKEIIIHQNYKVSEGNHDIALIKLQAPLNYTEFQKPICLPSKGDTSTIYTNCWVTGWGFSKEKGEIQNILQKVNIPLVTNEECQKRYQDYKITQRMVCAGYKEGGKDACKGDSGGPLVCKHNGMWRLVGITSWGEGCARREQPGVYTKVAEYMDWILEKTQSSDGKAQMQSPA
human plasma kallikrein, sequence (P03952 20-390 partner): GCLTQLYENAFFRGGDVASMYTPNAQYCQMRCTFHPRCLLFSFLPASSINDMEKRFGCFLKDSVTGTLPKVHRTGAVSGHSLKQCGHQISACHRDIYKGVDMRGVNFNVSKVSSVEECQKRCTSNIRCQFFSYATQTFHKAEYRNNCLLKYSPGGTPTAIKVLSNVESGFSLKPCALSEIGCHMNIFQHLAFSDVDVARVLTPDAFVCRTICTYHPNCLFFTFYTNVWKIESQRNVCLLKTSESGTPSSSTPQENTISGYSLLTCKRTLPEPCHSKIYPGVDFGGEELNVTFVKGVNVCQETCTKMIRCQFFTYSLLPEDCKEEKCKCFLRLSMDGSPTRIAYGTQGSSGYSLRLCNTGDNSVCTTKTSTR
Factor XIa, sequence (P03951 388-625): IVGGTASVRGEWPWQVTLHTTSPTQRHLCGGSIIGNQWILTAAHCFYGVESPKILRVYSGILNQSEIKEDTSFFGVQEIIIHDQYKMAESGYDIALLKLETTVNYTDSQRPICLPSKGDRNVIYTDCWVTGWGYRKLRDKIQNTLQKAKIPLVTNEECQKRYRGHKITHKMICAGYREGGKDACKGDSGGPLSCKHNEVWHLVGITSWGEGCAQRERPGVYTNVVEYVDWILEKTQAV
Factor XIa, sequence (P03951 19-387 partner): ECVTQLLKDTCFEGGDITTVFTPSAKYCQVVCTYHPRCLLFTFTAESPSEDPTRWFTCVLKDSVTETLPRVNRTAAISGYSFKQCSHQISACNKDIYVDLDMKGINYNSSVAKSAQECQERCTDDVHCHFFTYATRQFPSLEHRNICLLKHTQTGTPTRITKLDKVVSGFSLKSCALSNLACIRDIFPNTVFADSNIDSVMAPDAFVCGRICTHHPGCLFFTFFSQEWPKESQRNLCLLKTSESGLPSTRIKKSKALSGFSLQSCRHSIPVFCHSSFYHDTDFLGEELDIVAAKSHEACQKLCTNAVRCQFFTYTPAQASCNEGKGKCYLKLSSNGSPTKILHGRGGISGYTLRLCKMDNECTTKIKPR

`O=C1C=C(c2c(-n3cnnn3)ccc(Cl)c2F)C[C@H]2CCC(c3ncc(-c4n[nH]cc4Cl)[nH]3)N12` (stereo partly drawn) [Example 4, (8aR)-7-[3-Chloro-2-fluoro-6-(tetrazol-1-yl)phenyl]-3-[5-(4-chloro-1H-pyrazol-3-yl)-1H-imidazol-2-yl]-2,3,8,8a-tetrahydro-1H-indolizin-5-one]: the IC50 in test [1] is 0.867 µM; in test [2] (setting [3]), 0.0917 µM.

On to `Cc1cc(C(=O)Nc2nccc(-c3cnc([C@@H]4CC[C@@H]5CC(c6c(-n7cnnn7)ccc(Cl)c6F)=CC(=O)N54)[nH]3)c2F)on1` [Example 5, N-[4-[2-[(3S,8aR)-7-[3-Chloro-2-fluoro-6-(tetrazol-1-yl)phenyl]-5-oxo-2,3,8,8a-tetrahydro-1H-indolizin-3-yl]-1H-imidazol-5-yl]-3-fluoro-2-pyridyl]-3-methyl-isoxazole-5-carboxamide], for which the IC50 in test [1] is 0.0488 µM; in test [2] (setting [3]), 0.0042 µM.

On to `CS(=O)(=O)Nc1cc(-c2[nH]c(C3CCC4CC(c5c(-n6cnnn6)ccc(Cl)c5F)=CC(=O)N43)nc2F)ccn1` (stereo not drawn) [Example 6, N-[4-[2-[7-[3-Chloro-2-fluoro-6-(tetrazol-1-yl)phenyl]-5-oxo-2,3,8,8a-tetrahydro-1H-indolizin-3-yl]-4-fluoro-1H-imidazol-5-yl]-2-pyridyl]methanesulfonamide], for which the IC50 in test [1] worked out at 0.0066 µM; in test [2] (setting [3]), 0.0006 µM.

On to `CS(=O)(=O)Nc1cc(-c2cnc(C3CCC4CC(c5c(-n6cnnn6)ccc(Cl)c5F)=CC(=O)N43)[nH]2)ccn1` (stereo not drawn) [Example 7, N-[4-[2-[7-[3-Chloro-2-fluoro-6-(tetrazol-1-yl)phenyl]-5-oxo-2,3,8,8a-tetrahydro-1H-indolizin-3-yl]-1H-imidazol-5-yl]-2-pyridyl]methanesulfonamide], for which the figures for the IC50 in test [1] and in test [2] (setting [3]) were 0.0701 µM and 0.0064 µM, respectively.

As to `O=C1C=C(c2c(-n3cnnn3)ccc(Cl)c2F)C[C@H]2CC[C@@H](c3ncc(-c4ccc5cc[nH]c5c4)[nH]3)N12` [Example 8], the figures for the IC50 in test [1] and in test [2] (setting [3]) were 0.0177 µM and 0.0037 µM, respectively.

On to `O=C1C=C(c2c(-n3cnnn3)ccc(Cl)c2F)CC2CC[C@@H](c3nc(-c4ccnc(OC(F)F)c4)c[nH]3)N12` (stereo partly drawn) [Example 10, (S)-7-[3-Chloro-2-fluoro-6-(tetrazol-1-yl)phenyl]-3-[4-[2-(difluoromethoxy)-4-pyridyl]-1H-imidazol-2-yl]-2,3,8,8a-tetrahydro-1H-indolizin-5-one], for which the IC50 in test [1] worked out at 0.0268 µM; in test [2] (setting [3]), 0.0361 µM.

For `CC(=O)N[C@H](C)c1ccc(-c2[nH]c([C@@H]3CCC4CC(c5c(-n6cnnn6)ccc(Cl)c5F)=CC(=O)N43)nc2F)cc1` (stereo partly drawn) [Example 11, N-[(1R)-1-[4-[2-[(3S)-7-[3-Chloro-2-fluoro-6-(tetrazol-1-yl)phenyl]-5-oxo-2,3,8,8a-tetrahydro-1H-indolizin-3-yl]-4-fluoro-1H imidazol-5-yl]phenyl]ethyl]acetamide], the IC50 in test [1] was determined as 0.0305 µM; in test [2] (setting [3]), 0.0114 µM.

For the molecule `CCOC(=O)NCc1nccc(-c2cnc([C@@H]3CC[C@@H]4CC(c5c(-n6cnnn6)ccc(Cl)c5F)=CC(=O)N43)[nH]2)c1F` [Example 12, Ethyl-N-[[4-[2-[(3S,8aR)-7-[3-Chloro-2-fluoro-6-(tetrazol-1-yl)phenyl]-5-oxo-2,3,8,8a-tetrahydro-1H-indolizin-3-yl]-1H-imidazol-5-yl]-3-fluoro-2-pyridyl]methyl]carbamate], the IC50 worked out at 0.0355 µM in test [1] and 0.0027 µM in test [2] (setting [3]).

Turning to `CC(=O)NCc1nccc(-c2cnc([C@@H]3CC[C@@H]4CC(c5c(-n6cnnn6)ccc(Cl)c5F)=CC(=O)N43)[nH]2)c1F` [Example 13, N-[[4 [2-[(3S,8aR)-7-[3-Chloro-2-fluoro-6-(tetrazol-1-yl)phenyl]-5-oxo-2,3,8,8a-tetrahydro-1H-indolizin-3-yl]-1H-imidazol-5-yl]-3-fluoro-2-pyridyl]methyl]acetamide], the IC50 was 0.0686 µM in test [1] and 0.0042 µM in test [2] (setting [3]).

Consider `O=C1C=C(c2c(-n3cnnn3)ccc(Cl)c2F)C[C@H]2CC[C@@H](c3ncc(-c4ccc5[nH]ccc5c4)[nH]3)N12` [Example 14, (3S,8aR)-3-(5-(1H-indol-5-yl)-1H-imidazol-2-yl)-7-(3-chloro-2-fluoro-6-(1H-tetrazol-1-yl)phenyl)-2,3,8,8a-tetrahydroindolizin-5(1H)-one], for which the values for the IC50 in test [1] and in test [2] (setting [3]) were 0.0065 µM and 0.0038 µM, respectively.

`Nc1cc(-c2cnc([C@@H]3CC[C@@H]4CC(c5c(-n6cnnn6)ccc(Cl)c5F)=CC(=O)N43)[nH]2)c(Cl)cn1` [Example 15, (3S,8aR)-3-[5-(2-Amino-5-chloro-4-pyridyl)-1H-imidazol-2-yl]-7-[3-chloro-2-fluoro-6-(tetrazol-1-yl)phenyl]-2,3,8,8a-tetrahydro-1H-indolizin-5-one]: the IC50 in test [1] was 0.0275 µM; in test [2] (setting [3]), 0.0037 µM.

On to `CC(=O)N[C@H](C)c1ccc(-c2cnc([C@@H]3CCC4CC(c5c(-n6cnnn6)ccc(Cl)c5F)=CC(=O)N43)[nH]2)cc1` (stereo partly drawn) [Example 16, N-[(1R)-1-[4-[2-[(3S)-7-[3-Chloro-2-fluoro-6-(tetrazol-1-yl)phenyl]-5-oxo-2,3,8,8a-tetrahydro-1H-indolizin-3-yl]-1H-imidazol-5-yl]phenyl]ethyl]acetamide], for which the IC50 came out at 0.33 µM in test [1] and 0.061 µM in test [2] (setting [3]).

As to `O=C1C=C(c2c(-n3cnnn3)ccc(Cl)c2F)C[C@H]2CC[C@@H](c3ncc(-c4ccncc4F)[nH]3)N12` [Example 17, (3S,8aR)-7-[3-Chloro-2-fluoro-6-(tetrazol-1-yl)phenyl]-3-[5-(3-fluoro-4-pyridyl)-1H-imidazol-2-yl]-2,3,8,8a-tetrahydro-1H-indolizin-5-one], the IC50 in test [1] worked out at 0.029 µM; in test [2] (setting [3]), 0.003 µM.

Turning to `CC(=O)Nc1cc(-c2cnc([C@@H]3CCC4CC(c5c(-n6cnnn6)ccc(Cl)c5F)=CC(=O)N43)[nH]2)c(Cl)cn1` (stereo partly drawn) [Example 18, N-[5-Chloro-4 [2-[(3S)-7-[3-Chloro-2-fluoro-6-(tetrazol-1-yl)phenyl]-5-oxo-2,3,8,8a-tetrahydro-1H-indolizin-3-yl]-1H-imidazol-5-yl]-2-pyridyl]acetamide], the results for the half-maximal inhibitory concentration (IC50) in test [1] and in test [2] (setting [3]) were 0.465 µM and 0.0821 µM, respectively.

Turning to `Cc1c(-c2cnc([C@@H]3CCC4CC(c5c(-n6cnnn6)ccc(Cl)c5F)=CC(=O)N43)[nH]2)ccnc1N` (stereo partly drawn) [Example 21, (3S)-3-(5-(2-Amino-3-methylpyridin-4-yl)-1H-imidazol-2-yl)-7-(3-chloro-2-fluoro-6-(1H-tetrazol-1-yl)phenyl)-2,3,8,8a-tetrahydroindolizin-5(1H)-one], the values for the IC50 in test [1] and in test [2] (setting [3]) were 0.0655 µM and 0.0063 µM, respectively.

As for `O=C1C=C(c2c(OC(F)F)ccc(Cl)c2F)C[C@H]2CC[C@@H](c3nc(F)c(-c4ccnc(CO)c4F)[nH]3)N12` [Example 23, (3S,8aR)-7-(3-Chloro-6-(difluoromethoxy)-2-fluorophenyl)-3-(4-fluoro-5-(3-fluoro-2-(hydroxymethyl)pyridin-4yl)-1H-imidazol-2-yl)-2,3,8,8a-tetrahydroindolizin-5(1H)-one], the IC50 in test [1] was 0.265 µM; in test [2] (setting [3]), 0.0501 µM.

For `O=C1C=C(c2c(-n3cnnn3)ccc(Cl)c2F)C[C@H]2CC[C@@H](c3ncc(-c4cnc5[nH]ccc5c4)[nH]3)N12` [Example 24, (3S,8aR)-3-(5-(1H-pyrrolo[2,3-b]pyridin-5-yl)-1H-imidazol-2-yl)-7-(3-chloro-2-fluoro-6-(1H-tetrazol-1-yl)phenyl)-2,3,8,8a-tetrahydroindolizin-5(1H)-one], the IC50 in test [1] amounted to 0.092 µM; in test [2] (setting [3]), 0.0744 µM.

`O=C1C=C(c2c(OC(F)F)ccc(Cl)c2F)C[C@H]2CC[C@@H](c3ncc(-c4ccnc(CO)c4F)[nH]3)N12` [Example 25, (3S,8aR)-7-(3-Chloro-6-(difluoromethoxy)-2-fluorophenyl)-3-(5-(3-fluoro-2-(hydroxymethyl)pyridin-4-yl)-1H-imidazol-2-yl)-2,3,8,8a-tetrahydroindolizin-5(1H)-one]: the IC50 was 0.48 µM in test [1] and greater than 0.1 µM in test [2] (setting [3]).

For the molecule `O=C1C=C(c2c(C(F)F)ccc(Cl)c2F)C[C@H]2CC[C@@H](c3ncc(-c4ccnc(CO)c4F)[nH]3)N12` [Example 26, (3S,8aR)-7-(3-Chloro-6-(difluoromethyl)-2-fluorophenyl)-3-(5-(3-fluoro-2-(hydroxymethyl)pyridin-4-yl)-1H-imidazol-2-yl)-2,3,8,8a-tetrahydroindolizin-5(1H)-one], the IC50 in test [1] was 0.27 µM; in test [2] (5Fam-[…]-K5Tamra substrate 15 μM), greater than 0.1 µM.

As to `O=C1C=C(c2c(C(F)F)ccc(Cl)c2F)C[C@H]2CC[C@@H](c3nc(F)c(-c4ccnc(CO)c4F)[nH]3)N12` [Example 27, (3S,8aR)-7-(3-Chloro-6-(difluoromethyl)-2-fluorophenyl)-3-(4-fluoro-5-(3-fluoro-2-(hydroxymethyl)pyridin-4-yl)-1H-imidazol-2-yl)-2,3,8,8a-tetrahydroindolizin-5(1H)-one], the IC50 in test [1] was 0.118 µM; in test [2] (setting [3]) it was greater than 0.1 µM.

For `Cc1nc2ccc(-c3cnc([C@@H]4CC[C@@H]5CC(c6c(-n7cnnn7)ccc(Cl)c6F)=CC(=O)N54)[nH]3)cc2[nH]1` [Example 30, (3S,8aR)-7-(3-chloro-2-fluoro-6-(1H-tetrazol-1-yl)phenyl)-3-(5-(2-methyl-1H-benzo[d]imidazol-6-yl)-1H-imidazol-2-yl)-2,3,8,8a-tetrahydroindolizin-5(1H)-one], the IC50 was found to be 0.0044 µM in test [1] and 0.0021 µM in test [2] (setting [3]).
